Each block holds one compound with its values, some of them ahead of it.
Legend:
[1] = test system: T. interdigitale; assay: In vitro nail penetration/inhibition model (Bovine Hoof Sheets soaked in product, zone of inhibition); format: cell-based; settings: BHS soaked 24 hours in product, incubation at 28° C. 5 days
Experimental: Three test products containing 0.1% to 10% efinaconazole were tested in vitro for their capabilities to inhibit growth of a representative dermatophyte (T. interdigitale) that is known to cause onychomycosis and tinea pedis in humans: • (a) 0.1% efinaconazole, dissolved in a mixture of F6H8 and 2-propanol (10:1 v/v %), non-aqueous (8-9), • (b) 1.0% efinaconazole, dissolved in a mixture of F6H8 and 2-propanol (9:1 v/v %), non-aqueous (4-7), • (c) 10% efinaconazole, aqueous commercial product (“Jublia”; Bausch Health, Bridgewater, USA) (10-11). As reference products, DMSO was utilized as negative control (1), terbinafine (100 μg/ml in DMSO) as positive control (2) and F6H8 as vehicle control (3). […] Bovine Hoof Sheets (BHS; 400 μm thickness, 16 mm diameter), an established in vitro surrogate for human nails in transungual permeation studies, were soaked in excess in the three test products and the three reference products for 24 hours. Afterwards the BHS were taken from the soaking baths and remaining residues of the test and reference products were thoroughly removed. Then, BHS were transferred and placed onto freshly plated T. interdigitale culture plates. […] Experimental details and results are depicted in Table 2 below: […]

[2] = Preparation of solutions in semifluorinated alkanes, appearance of the composition; format: physicochemical
Experimental: 14 mg efinaconazole (purity >99%) is weighed in a 5-ml glass vial; 2 ml F6H8 (Novaliq, purity >99%) is added into the vial by using a pipette, closed with aluminium crimp cap and shaken for 4 hours at 280 mpm, at RT.
20 mg efinaconazole (purity >99%) is weighed in a 5-ml glass vial; the needed volume of the cosolvent is added into the vial by using a pipette; the vial is shaken by hand gentle; the needed volume of F6H8 (Novaliq, purity >99%) is added by using a pipette, closed with aluminium crimp cap and shaken for 4 hours at 280 mpm, at RT.
Following the procedure described in the Examples 1 and 2, the following compositions were prepared (Table 1):
20 mg terbinafine (free base; purity >98%) is weighed in a 5-ml glass vial; 2 ml F6H8 (Novaliq, purity >99%) is added into the vial by using a pipette, closed with aluminium crimp cap and shaken overnight at 280 mpm, at RT.
Following the aforementioned procedure the following compositions were prepared (Table 6): […]

Appearance ([2]; 1 mg/mL terbinafine in F4H5, no cosolvent): clear solution | Appearance ([2]; 1 mg/mL terbinafine in F6H8, no cosolvent): clear solution | Appearance ([2]; 5 mg/mL terbinafine in F4H5, no cosolvent): clear solution | Appearance ([2]; 5 mg/mL terbinafine in F6H8, no cosolvent): clear solution | Appearance ([2]; 10 mg/mL terbinafine in F6H8, no cosolvent): clear solution | Appearance ([2]; 10 mg/mL terbinafine, F4H5, ethanol (10 vol %)): clear solution | Appearance ([2]; 10 mg/ml terbinafine, F6H8 (90 vol %), 2-propanol (10 vol %)): clear solution | Appearance ([2]; 15 mg/mL terbinafine in F6H8, no cosolvent): clear solution | Appearance ([2]; 20 mg/mL terbinafine, F6H8 (90 vol %), ethanol (10 vol %)): clear solution | Appearance ([2]; 20 mg/ml terbinafine, F6H8 (90 vol %), 2-propanol (10 vol %)): clear solution
Structure (SMILES): CN(C/C=C/C#CC(C)(C)C)Cc1cccc2ccccc12 [terbinafine]
Results (inhibition zone, in words) [1]: nearly complete inhibition | zone of inhibition at 100 µg/mL ([1]; Trichophyton interdigitale, 120 h, read-out: zones of inhibition): 56 to 58 mm

Appearance ([2]; 7 mg/mL efinaconazole in F6H8, no cosolvent): clear solution | Appearance ([2]; 10 mg/mL efinaconazole, F6H8 (90 vol %), 2-propanol (10 vol %)): clear solution | Appearance ([2]; 15 mg/mL efinaconazole, F4H5 (90 vol %), 2-propanol (10 vol %)): clear solution | Appearance ([2]; 15 mg/mL efinaconazole, F4H10 (90 vol %), 2-propanol (10 vol %)): clear solution | Appearance ([2]; 15 mg/mL efinaconazole, F6H8 (85 vol %), 2-propanol (10 vol %), 1-Methyl-2-pyrrolidon (5 vol %)): clear solution | Appearance ([2]; 15 mg/mL efinaconazole, F6H8 (85 vol %), 2-propanol (10 vol %), Ethyl acetate (5 vol %)): clear solution | Appearance ([2]; 15 mg/mL efinaconazole, F6H8 (85 vol %), 2-propanol (10 vol %), N,N-Dimethyl acetamide (5 vol %)): clear solution | Appearance ([2]; 15 mg/mL efinaconazole, F6H8 (85 vol %), 2-propanol (10 vol %), N,N-Dimethyl formamide (5 vol %)): clear solution | Appearance ([2]; 25 mg/mL efinaconazole, F6H8 (75 vol %), 2-propanol (25 vol %)): clear solution
Structure (SMILES): C=C1CCN([C@H](C)[C@](O)(Cn2cncn2)c2ccc(F)cc2F)CC1 [Efinaconazole, efinaconazole]

Reference: patent publication US20260283950A1, “TRI-AZOLE ANTIFUNGAL COMPOSITIONS” (priority 2023, published 2026)
